Data on one molecule can be found in US8273775B2, “Non-steroidal brassinosteroid mimetic” (priority 2006, dated 2012).

In one test the target is T1, AtAUR1 (Arabidopsis thaliana, UniProt Q9M077).
T1 sequence (Q9M077 1-294): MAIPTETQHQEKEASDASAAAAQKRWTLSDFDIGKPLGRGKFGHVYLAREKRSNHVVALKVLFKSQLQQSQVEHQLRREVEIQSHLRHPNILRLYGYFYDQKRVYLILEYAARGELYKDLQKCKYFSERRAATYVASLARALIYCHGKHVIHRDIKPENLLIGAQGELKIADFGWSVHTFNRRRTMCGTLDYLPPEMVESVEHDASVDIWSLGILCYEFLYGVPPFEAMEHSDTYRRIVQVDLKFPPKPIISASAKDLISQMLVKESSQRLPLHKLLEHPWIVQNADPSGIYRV
Description: Kinase assay with AtAUR1 and histone H3 as substrate. The format is biochemical. The note with it: 10 μM abrasin. The protocol:
(§1) Coomassie staining was used as a loading control. b, Autoradiography of kinase assays with nine ASKs with MBP as a substrate in the presence or absence of 10 μM abrasin. The second member of group IV, ASKκ, had no kinase activity and was not included in the analysis. c, Autoradiography of kinase assays with AtMPK4, AtMPK6 and MBP as a substrate (left) and with AtAUR1 kinase and histone H3 as a substrate (right) in the presence or absence of 10 μM abrasin.
For in vitro kinase assays, MBP, MBP-BES1, and MBP-bes1 (20 ng each) were incubated with GST-BIN2 or GST-BRI1 kinase (200 ng each) in 20 μl of kinase buffer (20 mM Tris [pH 7.5], 100 mM NaCl, and 12 mM MgCl2) and 10 μCi ^32P-γATP. After incubation at 37° C. for 40 min, the reactions were stopped by adding 20 μl of 2×SDS buffer and boiling at 94° C. for 5 min. Proteins were resolved by a PAGE gel and phosphorylation was detected by exposing the dried gel to X-ray film. […]
Besides BIN2, nine additional GSK-3 kinases (also designated ASKs for Arabidopsis SHAGGY-related kinases) divided into four subgroups (I-IV) have been identified in Arabidopsis (Jonak and Hirt, 2002; Yoo et al. 2006). To determine the specificity of abrasin, its effect on the kinase activity of all ASKs was analyzed with myelin basic protein (MBP) as a general substrate. […]

Test [1] concerns Arabidopsis thaliana seedlings. Description: Chemical genetics screening for brassinosteroid-related phenotypes. The format is in vivo. To be noted: young seedlings. The protocol:
A commercial 10.000 compound library (DiverSet, ChemBridge, USA) was screened for brassinosteroid related phenotypes. Three to four Arabidopsis thaliana (L.) Heynh. seeds were sown in 96-well filterplates (Multiscreen HTS MSBVS1210, Millipore, USA) in liquid medium derived from standard Murashige and Skoog (MS) medium in a growth chamber under continuous light (110 μE.m^2. s^1 photosynthetically active radiation, supplied by cool-white fluorescent tungsten tubes; Osram) at 22° C. Three days after germination compounds were added to the 96-well plates at a final concentration of 50 μM. Plants were screened six days after germination for brassinosteroid-related phenotypes.
For further phenotypical analysis, all plants were grown on vertically oriented square plates (Greiner Labortechnik, Austria) with solid medium derived from standard Murashige and Skoog medium under the same conditions. For the hypocotyl-elongation assay, plants were grown in the dark at 22° C. under the same conditions.

The next test addresses T2, ASKθ (group III) (Arabidopsis thaliana, UniProt Q96287).
T2 sequence (Q96287 1-472): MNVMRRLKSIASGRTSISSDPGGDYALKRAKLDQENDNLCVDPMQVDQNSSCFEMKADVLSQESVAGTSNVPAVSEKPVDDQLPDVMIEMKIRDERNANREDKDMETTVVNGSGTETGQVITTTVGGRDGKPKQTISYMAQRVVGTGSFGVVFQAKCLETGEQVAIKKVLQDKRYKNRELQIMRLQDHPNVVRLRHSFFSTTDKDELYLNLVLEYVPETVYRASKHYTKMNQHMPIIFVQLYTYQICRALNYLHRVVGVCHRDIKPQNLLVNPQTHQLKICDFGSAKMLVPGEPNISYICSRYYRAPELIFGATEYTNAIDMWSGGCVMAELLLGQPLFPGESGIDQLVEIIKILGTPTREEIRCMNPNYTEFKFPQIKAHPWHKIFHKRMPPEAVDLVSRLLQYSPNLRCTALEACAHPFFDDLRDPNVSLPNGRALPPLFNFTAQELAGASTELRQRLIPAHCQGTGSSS
Description: ASK kinase assay with MBP as substrate, ASKθ. The class given is biochemical. The note with it: 10 μM abrasin; read-out: residual activity. How it is done: Coomassie staining was used as a loading control. b, Autoradiography of kinase assays with nine ASKs with MBP as a substrate in the presence or absence of 10 μM abrasin.
(§2) For in vitro kinase assays, MBP, MBP-BES1, and MBP-bes1 (20 ng each) were incubated with GST-BIN2 or GST-BRI1 kinase (200 ng each) in 20 μl of kinase buffer (20 mM Tris [pH 7.5], 100 mM NaCl, and 12 mM MgCl2) and 10 μCi ^32P-γATP. After incubation at 37° C. for 40 min, the reactions were stopped by adding 20 μl of 2×SDS buffer and boiling at 94° C. for 5 min. Proteins were resolved by a PAGE gel and phosphorylation was detected by exposing the dried gel to X-ray film. Proteins from 35S::bes1-GFP transgenic plants were used for phosphatase (CIP) treatments as described (Fankhauser et al., 1999).
Besides BIN2, nine additional GSK-3 kinases (also designated ASKs for Arabidopsis SHAGGY-related kinases) divided into four subgroups (I-IV) have been identified in Arabidopsis (Jonak and Hirt, 2002; Yoo et al. 2006). To determine the specificity of abrasin, its effect on the kinase activity of all ASKs was analyzed with myelin basic protein (MBP) as a general substrate.

In test [2] the test system is Arabidopsis thaliana seedlings. Description: Lateral root formation / root elongation of seedlings on agar plates. The format is in vivo. To be noted: Arabidopsis thaliana; read-out: root elongation and lateral root development inhibited, EC50-value. The protocol:
FIG. 3: (A) Phenotypic characterization. WT plants were grown under standard conditions on agar plates. […] Left panel: control plant. Middle panel: abrasin treated plant. Right panel: BL treated plant. (B) Dose response measurements of abrasin using lateral root formation as an indicator of brassinosteroid like activity. Error bars represent standard error of the mean. […] Osram) at 22° C. Three days after germination compounds were added to the 96-well plates at a final concentration of 50 μM. Plants were screened six days after germination for brassinosteroid-related phenotypes. For further phenotypical analysis, all plants were grown on vertically oriented square plates (Greiner Labortechnik, Austria) with solid medium derived from standard Murashige and Skoog medium under the same conditions. For the hypocotyl-elongation assay, plants were grown in the dark at 22° C. under the same conditions.

The target in a further test is T3, BIN2 kinase (Arabidopsis thaliana, UniProt Q39011).
T3 sequence (Q39011 1-380): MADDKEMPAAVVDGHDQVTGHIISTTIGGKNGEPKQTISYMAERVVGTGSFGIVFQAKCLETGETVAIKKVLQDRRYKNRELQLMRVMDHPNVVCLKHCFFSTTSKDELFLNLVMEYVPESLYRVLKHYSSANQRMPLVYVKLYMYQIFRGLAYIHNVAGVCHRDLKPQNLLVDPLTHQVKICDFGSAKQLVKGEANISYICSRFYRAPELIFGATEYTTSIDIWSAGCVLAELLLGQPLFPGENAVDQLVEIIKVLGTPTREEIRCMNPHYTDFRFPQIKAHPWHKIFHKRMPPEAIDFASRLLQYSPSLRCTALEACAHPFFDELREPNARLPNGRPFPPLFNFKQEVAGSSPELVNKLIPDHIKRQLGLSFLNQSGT
Put plainly: In vitro kinase assay GST-BIN2 with MBP-BES1. The class given is biochemical. How it is done:
as §1, §2

For orientation: EC50 means the concentration at which the effect is half-maximal.

The structures appear in SMILES notation.

`O=C(O)CCC(=O)Nc1ccc(Br)cn1` [abrasin, 4-[(5-bromo-2-pyridinyl)amino]-4-oxobutanoic acid]: on AtAUR1, the “effect on kinase activity” value was “no effect”. Besides, in test [1], the “elongation of leaves, petioles and the hypocotyl” value was “strongly induced elongation of leaves, petioles and the hypocotyl in a dosage-dependent manner”. The remaining activity at 10 µM at ASKθ (group III) came to 20%. Besides, the EC50 in test [2] stood at 20 µM. In addition, the “concentration at which inhibitory effect was already apparent” value at BIN2 kinase is recorded as “lower than 2.5 μM”. In addition, the “BIN2 kinase activity towards its substrate BES1” value on BIN2 kinase (0 to 10 μM) is reported as “strongly reduced BIN2 kinase activity towards its substrate BES1 in a dose-dependent manner”. Besides, on BIN2 kinase (at 10 μM), the “inhibitory effect on BIN2 kinase activity” value is “dramatic”.
